Here are results for two molecules from BindingDB's records for doi:10.1002/cbic.201600513 (University of Florida, 2017).

By Ki is commonly meant a measure of affinity in units of concentration, obtained from inhibition or displacement. High values mean weaker binding, low ones tighter binding.

One experiment has as its target Carbonic anhydrase 12 (Homo sapiens, UniProt O43570). The experiment is described as follows: CA Inhibition Assay. An excerpt: (§1) CA-catalyzed CO2 hydration activity methods were published previously by Cornelio et al. as part of a larger series of benzenesulfonamide-based inhibitors with aryl substitutions in the para position of the benzene ring.
The next experiment addresses Carbonic anhydrase 2 (Homo sapiens, UniProt P00918). Kind of experiment: CA Inhibition Assay.
Excerpt: as §1

Chain of Carbonic anhydrase 12 (O43570 whole entry): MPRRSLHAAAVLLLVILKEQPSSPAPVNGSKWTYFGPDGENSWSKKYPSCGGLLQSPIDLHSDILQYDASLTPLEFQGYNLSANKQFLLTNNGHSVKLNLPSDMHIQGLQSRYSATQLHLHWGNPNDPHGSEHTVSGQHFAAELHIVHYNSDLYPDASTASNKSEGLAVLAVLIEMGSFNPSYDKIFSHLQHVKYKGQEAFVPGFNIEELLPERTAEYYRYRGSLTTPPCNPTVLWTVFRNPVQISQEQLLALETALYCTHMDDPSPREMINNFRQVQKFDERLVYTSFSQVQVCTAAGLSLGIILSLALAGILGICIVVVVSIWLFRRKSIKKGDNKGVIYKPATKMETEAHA

On to `NS(=O)(=O)c1ccc(-c2cccc(C=O)c2)cc1` [4-(3-formylphenyl)-benzenesulfonamide (4e)], for which the figures for the Ki on Carbonic anhydrase 12 and on Carbonic anhydrase 2 were 0.6 nM and 2 nM, respectively.
On Carbonic anhydrase 2, `NS(=O)(=O)c1ccc(-c2ccccc2)cc1` [4-(phenyl)-bezenesulfonamide (4a)] yielded a Ki of 0.8 nM.
